In patent US20120142705A1, “ISATIN AND OXINDOLE COMPOUNDS” (priority 2010, published 2012):

The compounds below were run against T1, Recombinant human liver GK1 (GST-GK) (Homo sapiens, UniProt P35557) (assay: In vitro glucokinase activity, G6PDH-coupled spectrophotometric assay). Details: 5 mM D-glucose, 30° C., pH 7.1.
T1 construct: made in house; host or cells: E. coli
T1 sequence (P35557 1-466 isoform P35557-2): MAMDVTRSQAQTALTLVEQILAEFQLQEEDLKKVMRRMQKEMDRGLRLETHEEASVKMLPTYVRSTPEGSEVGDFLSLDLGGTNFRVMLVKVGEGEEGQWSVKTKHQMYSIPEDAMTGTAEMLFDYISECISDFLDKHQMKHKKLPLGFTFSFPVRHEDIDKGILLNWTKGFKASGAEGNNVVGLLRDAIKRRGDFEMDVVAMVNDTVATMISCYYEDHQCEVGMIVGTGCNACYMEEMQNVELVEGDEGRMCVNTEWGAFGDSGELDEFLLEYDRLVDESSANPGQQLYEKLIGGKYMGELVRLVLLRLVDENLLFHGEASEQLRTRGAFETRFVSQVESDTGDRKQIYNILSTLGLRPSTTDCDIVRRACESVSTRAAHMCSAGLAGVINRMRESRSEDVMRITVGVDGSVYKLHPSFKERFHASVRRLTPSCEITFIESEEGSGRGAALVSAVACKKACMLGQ
Assay type: biochemical
How it was run: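 GST-fused human liver GK1 from E. coli, run at 30° C. in pH 7.1 HEPES with 5 mM glucose, 1 mM ATP and 10% DMSO, coupled via G6PDH to NADH. OD340 rate measured after enzyme start; SC1.5 is the activator concentration raising activity 50% over DMSO control.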

Row | SMILES | SC1.5 (concentration of activator that produced a 50% increase in the activity of GK) [µM]
1 | CC(C)CC(C(=O)Nc1nccs1)N1C(=O)Cc2c(Cl)cccc21 (stereo not shown) [Example 28, 2-(4-Chloro-2-oxo-2,3-dihydro-indol-1-yl)-4-methyl-pentanoic acid thiazol-2-ylamide] | 9.95
2 | O=C1C(=O)N(C(CC2CCCC2)C(=O)Nc2nccs2)c2cccc(Cl)c21 (stereo not shown) [Example 16, 2-(4-Chloro-2,3-dioxo-2,3-dihydro-indol-1-yl)-3-cyclopentyl-N-thiazol-2-yl-propionamide] | 3.91
3 | CC(C)CC(C(=O)Nc1nccs1)N1C(=O)Cc2cc(OC(F)(F)F)ccc21 (stereo not shown) [Example 41, 4-Methyl-2-(2-oxo-5-trifluoromethoxy-2,3-dihydro-indol-1-yl)-pentanoic acid thiazol-2-ylamide] | 2.81
4 | COc1ccc2c(c1)CC(=O)N2C(CC(C)C)C(=O)Nc1ccccn1 (stereo not shown) [Example 57, 2-(5-Methoxy-2-oxo-2,3-dihydro-indol-1-yl)-4-methyl-pentanoic acid pyridin-2-ylamide] | 13.89
5 | CC(C)CC(C(=O)Nc1ccn(C)n1)N1C(=O)Cc2cc(Br)ccc21 (stereo not shown) [Example 73, 2-(5-Bromo-2-oxo-2,3-dihydro-indol-1-yl)-4-methyl-pentanoic acid (1-methyl-1H-pyrazol-3-yl)-amide] | 17.96
6 | O=C1C(=O)N(C(CC2CCCC2)C(=O)Nc2nccs2)c2ccccc21 (stereo not shown) [Example 4, 3-Cyclopentyl-2-(2,3-dioxo-2,3-dihydro-indol-1-yl)-N-thiazol-2-yl-propionamide] | 5.21
7 | COc1ccc2c(c1)CC(=O)N2C(CC1CCCC1)C(=O)Nc1ccn(C)n1 (stereo not shown) [Example 50, 3-Cyclopentyl-2-(5-methoxy-2-oxo-2,3-dihydro-indol-1-yl)-N-(1-methyl-1H-pyrazol-3-yl)-propionamide] | 8.39
8 | CC(C)CC(C(=O)Nc1ccccn1)N1C(=O)Cc2cc(Br)ccc21 (stereo not shown) [Example 74, 2-(5-Bromo-2-oxo-2,3-dihydro-indol-1-yl)-4-methyl-pentanoic acid pyridin-2-ylamide] | 3.24
9 | CC(C)CC(C(=O)Nc1ccccn1)N1C(=O)C(=O)c2cc(Br)ccc21 (stereo not shown) [Example 69, 2-(5-Bromo-2,3-dioxo-2,3-dihydro-indol-1-yl)-4-methyl-pentanoic acid pyridin-2-ylamide] | 7.43
10 | Cn1ccc(NC(=O)C(CC2CCCC2)N2C(=O)C(=O)c3c(Cl)cccc32)n1 (stereo not shown) [Example 15, 2-(4-Chloro-2,3-dioxo-2,3-dihydro-indol-1-yl)-3-cyclopentyl-N-(1-methyl-1H-pyrazol-3-yl)-propionamide] | 6.5
11 | O=C1C(=O)N(C(CC2CCCC2)C(=O)Nc2cnccn2)c2cccc(Cl)c21 (stereo not shown) [Example 13, 2-(4-Chloro-2,3-dioxo-2,3-dihydro-indol-1-yl)-3-cyclopentyl-N-pyrazin-2-yl-propionamide] | 6.94
12 | Cn1ccc(NC(=O)C(CC2CCCC2)N2C(=O)Cc3cc(OC(F)(F)F)ccc32)n1 (stereo not shown) [Example 34, 3-Cyclopentyl-N-(1-methyl-1H-pyrazol-3-yl)-2-(2-oxo-5-trifluoromethoxy-2,3-dihydro-indol-1-yl)-propionamide] | 1.07
13 | COc1ccc2c(c1)C(=O)C(=O)N2C(CC1CCCC1)C(=O)Nc1ccn(C)n1 (stereo not shown) [Example 47, 3-Cyclopentyl-2-(5-methoxy-2,3-dioxo-2,3-dihydro-indol-1-yl)-N-(1-methyl-1H-pyrazol-3-yl)-propionamide] | 23.88
14 | CC(C)CC(C(=O)Nc1ccn(C)n1)N1C(=O)Cc2cc(OC(F)(F)F)ccc21 (stereo not shown) [Example 42, 4-Methyl-2-(2-oxo-5-trifluoromethoxy-2,3-dihydro-indol-1-yl)-pentanoic acid (1-methyl-1H-pyrazol-3-yl)-amide] | 8.12
15 | O=C1C(=O)N(C(CC2CCCC2)C(=O)Nc2nccs2)c2ccc(Br)cc21 (stereo not shown) [Example 63, 2-(5-Bromo-2,3-dioxo-2,3-dihydro-indol-1-yl)-3-cyclopentyl-N-thiazol-2-yl-propionamide] | 2.18

Results, then the compound that gave them:

Row | SC1.5 (concentration of activator that produced a 50% increase in the activity of GK) [µM] | SMILES
16 | 16.89 | CC(C)CC(C(=O)Nc1ccccn1)N1C(=O)C(=O)c2cc(Cl)ccc21 (stereo not shown) [Example 102, 2-(5-Chloro-2,3-dioxo-2,3-dihydro-indol-1-yl)-4-methyl-pentanoic acid pyridin-2-ylamide]
17 | 0.12 | O=C(Nc1ccccn1)C(CC1CCCC1)N1C(=O)Cc2ccc(Br)cc21 (stereo not shown) [Example 135, 2-(6-Bromo-2-oxo-2,3-dihydro-indol-1-yl)-3-cyclopentyl-N-pyridin-2-yl-propionamide]
18 | 11.29 | Cc1ccc2c(c1)CC(=O)N2C(CC1CCCC1)C(=O)Nc1ccn(C)n1 (stereo not shown) [Example 81, 3-Cyclopentyl-2-(5-methyl-2-oxo-2,3-dihydro-indol-1-yl)-N-(1-methyl-1H-pyrazol-3-yl)-propionamide]
19 | 4.95 | CC(C)CC(C(=O)Nc1ccccn1)N1C(=O)Cc2cc(Cl)ccc21 (stereo not shown) [Example 108, 2-(5-Chloro-2-oxo-2,3-dihydro-indol-1-yl)-4-methyl-pentanoic acid pyridin-2-ylamide]
20 | 2.64 | CC(C)CC(C(=O)Nc1cnccn1)N1C(=O)Cc2ccc(Cl)cc21 (stereo not shown) [Example 113, 2-(6-Chloro-2-oxo-2,3-dihydro-indol-1-yl)-4-methyl-pentanoic acid pyrazin-2-ylamide]
21 | 0.91 | CC(C)CC(C(=O)Nc1ccccn1)N1C(=O)Cc2ccc(Cl)cc21 (stereo not shown) [Example 114, 2-(6-Chloro-2-oxo-2,3-dihydro-indol-1-yl)-4-methyl-pentanoic acid pyridin-2-ylamide]
22 | 2.28 | Cc1ccc2c(c1)N(C(CC1CCCC1)C(=O)Nc1ccn(C)n1)C(=O)C2 (stereo not shown) [Example 131, 3-Cyclopentyl-2-(6-methyl-2-oxo-2,3-dihydro-indol-1-yl)-N-(1-methyl-1H-pyrazol-3-yl)-propionamide]

Same assay, conditions: @ 30 uM; 5 mM D-glucose, 30° C.

Row | SMILES | fold induction at 30 µM
23 | CC(C)CC(C(=O)Nc1cnccn1)N1C(=O)C(=O)c2cc(Br)ccc21 (stereo not shown) [Example 68, 2-(5-Bromo-2,3-dioxo-2,3-dihydro-indol-1-yl)-4-methyl-pentanoic acid pyrazin-2-ylamide] | 1.32
24 | Cn1ccc(NC(=O)C(CC2CCCC2)N2C(=O)C(=O)c3ccccc32)n1 (stereo not shown) [Example 5, 3-Cyclopentyl-2-(2,3-dioxo-2,3-dihydro-indol-1-yl)-N-(1-methyl-1H-pyrazol-3-yl)-propionamide] | 1.47

Further lines, results first:

Row | fold induction at 30 µM | SMILES
25 | 1.16 | Cc1ccc2c(c1)C(=O)C(=O)N2C(CC(C)C)C(=O)Nc1ccccn1 (stereo not shown) [Example 85, 4-Methyl-2-(5-methyl-2,3-dioxo-2,3-dihydro-indol-1-yl)-pentanoic acid pyridin-2-ylamide]
26 | 1.22 | CC(C)CC(C(=O)Nc1ccn(C)n1)N1C(=O)Cc2cc(Cl)ccc21 (stereo not shown) [Example 107, 2-(5-Chloro-2-oxo-2,3-dihydro-indol-1-yl)-4-methyl-pentanoic acid (1-methyl-1H-pyrazol-3-yl)-amide]
27 | 1.16 | Cc1ccc2c(c1)C(=O)C(=O)N2C(CC(C)C)C(=O)Nc1nccs1 (stereo not shown) [Example 87, 4-Methyl-2-(5-methyl-2,3-dioxo-2,3-dihydro-indol-1-yl)-pentanoic acid thiazol-2-ylamide]
28 | 1.4 | CC(C)CC(C(=O)Nc1nccs1)N1C(=O)C(=O)c2cc(Cl)ccc21 (stereo not shown) [Example 101, 2-(5-Chloro-2,3-dioxo-2,3-dihydro-indol-1-yl)-4-methyl-pentanoic acid thiazol-2-ylamide]
